Literature values in US20190076442A1, “PRESERVATIVE FREE PHARMACEUTICAL COMPOSITION FOR OPHTHALMIC ADMINISTRATION CONTAINING BIMATOPROST AND TIMOLOL” (PHARMATHEN S.A., priority 2016, published 2019).
Structures can show the parent of a compound that is named as a salt.

Row | SMILES | Solubility in ethanol (ethyl alcohol) | Solubility in water | Solubility in chloroform (chloroform) | Solubility in cyclohexane (cyclohexane) | Solubility in ether (ether) | Solubility in methanol (methanol) | Solubility in propylene glycol (propylene glycol)
1 | CCNC(=O)CCC/C=C\C[C@@H]1[C@@H](/C=C/[C@@H](O)CCc2ccccc2)[C@H](O)C[C@@H]1O [Bimatoprost] | very soluble | slightly soluble | – | – | – | – | –
2 | CC(C)(C)NC[C@H](O)COc1nsnc1N1CCOCC1 [Timolol maleate] | soluble | soluble | sparingly soluble | insoluble | insoluble | soluble | sparingly soluble
